Source: patent US20220073536A1 (Rigel Pharmaceuticals, Inc., priority 2003, published 2022)
Counter-ions that a name gives are not always drawn.

Key:
[1] = tested on: cultured human mast cells (CHMC); test: CHMC low cell density IgE activation: tryptase assay; type: cell-based; conditions: low cell density CHMC, IgE activation
Summary of the method: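 Anti-IgE-driven degranulation of cultured human mast cells at low density, 1000–1500 cells/well, was induced over 30 min at 37 °C. It was scored by supernatant tryptase activity on a fluorogenic substrate.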

[2] = tested on: cultured human mast cells (CHMC); test: CHMC low cell density ionomycin activation: tryptase assay; type: cell-based; conditions: low cell density CHMC, read-out: LD Tryptase, CHMC, Iono, 3 pt
[3] = tryptase release, 3 point, read-out: LD Tryptase, CHMC, IgE, 3 pt
[4] = Homo sapiens, Mast cell, tryptase, 3 pt, read-out: LD Tryptase, CHMC, IgE, 3 pt
[5] = Homo sapiens, Mast cell, tryptase, 8 pt, read-out: LD Tryptase, CHMC, IgE, 8 pt
[6] = Homo sapiens, Mast cell, tryptase, 3 pt
[7] = Homo sapiens, Mast cell, tryptase release, 3 pt, read-out: LD Tryptase, CHMC, IgE, 3 pt
[8] = Homo sapiens, Mast cell, tryptase release, 8 pt, read-out: LD Tryptase, CHMC, IgE, 8 pt
[9] = Homo sapiens, Mast cell, tryptase release, 3 pt

CNC(=O)Cn1ccc2ccc(Nc3ncc(F)c(Nc4ccc(OC)c(Cl)c4)n3)cc21 [Compound 664, N4-(3-Chloro-4-methoxyphenyl)-5-fluoro-N2-[1-(N-methylamino)carbonylmethyleneindol-6-yl]-2,4-pyrimidinediamine]
IC50 [1, 3]: < 10 µM | IC50 ([1]; tryptase release, 8 point, read-out: LD Tryptase, CHMC, IgE, 8 pt): < 10 µM | IC50 ([2]; tryptase release, 3 point): > 10 µM

CNC(=O)Cn1ccc2ccc(Nc3ncc(F)c(Nc4ccc(C(=O)NC)c(Cl)c4)n3)cc21 [Compound 665, N4-[3-Chloro-4-(N-methylamino)carbonylphenyl]-5-fluoro-N2-[1-(N-methylamino)carbonylmethyleneindol-6-yl]-2,4-pyrimidinediamine]
IC50 [1, 3]: < 10 µM | IC50 ([2]; tryptase release, 3 point): > 10 µM

COc1ccc(Nc2nc(Cl)ncc2F)cc1Cl [Compound 666]
IC50 ([1]; Homo sapiens, Mast cell, tryptase release, 3 point, read-out: LD Tryptase, CHMC, IgE, 3 pt): > 10 µM | IC50 ([2]; Homo sapiens, Mast cell, tryptase release, 3 point): > 10 µM

CCn1ncc2cc(Nc3ncc(F)c(Nc4ccc(OC)c(Cl)c4)n3)ccc21 [Compound 694]
IC50 [1, 4]: < 10 µM | IC50 [1, 5]: < 10 µM | IC50 [2, 6]: > 10 µM

CCn1ncc2cc(Nc3ncc(F)c(Nc4ccc(Cl)c(Cl)c4)n3)ccc21 [Compound 695, N4-(3,4-Dichlorophenyl)-N2-(1-ethylindazol-5-yl)-5-fluoro-2,4-pyrimidinediamine]
IC50 [1, 4]: > 10 µM | IC50 [2, 6]: > 10 µM

CCn1ncc2cc(Nc3ncc(F)c(Nc4ccc5c(c4)NC(=O)C(C)(C)O5)n3)ccc21 [Compound 696, N4-(2,2-Dimethyl-3-oxo-4H-benz[1,4]oxazin-6-yl)-N2-(1-ethylindazol-5-yl)-5-fluoro-2,4-pyrimidinediamine]
IC50 [1, 4]: < 10 µM | IC50 [1, 5]: < 10 µM | IC50 [2, 6]: < 10 µM

CCn1ncc2cc(Nc3ncc(F)c(Nc4ccc(F)c(OC)c4)n3)ccc21 [Compound 697, N2-(1-Ethylindazol-5-yl)-5-fluoro-N4-(4-fluoro-3-methoxyphenyl)-2,4-pyrimidinediamine]
IC50 [1, 4]: < 10 µM | IC50 [1, 5]: < 10 µM | IC50 [2, 6]: > 10 µM

CCn1ncc2ccc(Nc3ncc(F)c(Nc4ccc(OC)c(Cl)c4)n3)cc21 [Compound 698, N4-(3-Chloro-4-methoxyphenyl)-N2-(1-ethylindazol-6-yl)-5-fluoro-2,4-pyrimidinediamine]
IC50 [1, 4]: < 10 µM | IC50 [1, 5]: < 10 µM | IC50 [2, 6]: > 10 µM

CCn1ncc2ccc(Nc3ncc(F)c(Nc4ccc(Cl)c(Cl)c4)n3)cc21 [Compound 699, N4-(3,4-Dichlorophenyl)-N2-(1-ethylindazol-6-yl)-5-fluoro-2,4-pyrimidinediamine]
IC50 [1, 4]: < 10 µM | IC50 [2, 6]: < 10 µM

CCn1ncc2ccc(Nc3ncc(F)c(Nc4ccc5c(c4)NC(=O)C(C)(C)O5)n3)cc21 [Compound 700, N4-(2,2-Dimethyl-3-oxo-4H-benz[1,4]oxazin-6-yl)-N2-(1-ethylindazol-6-yl)-5-fluoro-2,4-pyrimidinediamine]
IC50 [1, 4]: < 10 µM | IC50 [1, 5]: < 10 µM | IC50 [2, 6]: < 10 µM

CCn1ncc2ccc(Nc3ncc(F)c(Nc4ccc(F)c(OC)c4)n3)cc21 [Compound 701, N2-(1-Ethylindazol-6-yl)-5-fluoro-N4-(4-fluoro-3-methoxyphenyl)-2,4-pyrimidinediamine]
IC50 [1, 4]: < 10 µM | IC50 [2, 6]: < 10 µM

CCCn1ncc2ccc(Nc3ncc(F)c(Nc4ccc(OC)c(Cl)c4)n3)cc21 [Compound 706, N4-(3-Chloro-4-methoxyphenyl)-5-fluoro-N2-(1-n-propylindazol-6-yl)-2,4-pyrimidinediamine]
IC50 [1, 5]: < 10 µM | IC50 [2, 6]: < 10 µM

CCn1cc2ccc(Nc3ncc(F)c(Nc4ccc5c(c4)NC(=O)C(C)(C)O5)n3)cc2n1 [Compound 761, N4-(2,2-Dimethyl-3-oxo-4H-benz[1,4]oxazin-6-yl)-N2-(2-ethylindazol-6-yl)-5-fluoro-2,4-pyrimidinediamine]
IC50 [1, 4]: < 10 µM | IC50 [1, 5]: < 10 µM | IC50 [2, 6]: > 10 µM

Cn1ncc2ccc(Nc3ncc(F)c(Nc4ccc5c(c4)NC(=O)C(C)(C)O5)n3)cc21 [Compound 766, N4-(2,2-Dimethyl-3-oxo-4H-benz[1,4]oxazin-6-yl)-5-fluoro-N2-(1-methylindazol-6-yl)-2,4-pyrimidinediamine DL-Camphor-1-sulfonic Acid Salt]
IC50 ([1]; tryptase, 3 pt, read-out: LD Tryptase, CHMC, IgE, 3 pt): < 10 µM | IC50 ([1]; tryptase, 8 pt, read-out: LD Tryptase, CHMC, IgE, 8 pt): < 10 µM | IC50 ([2]; tryptase, 3 pt): > 10 µM

Cn1ncc2ccc(Nc3ncc(F)c(Nc4ccc5c(c4)NC(=O)C(C)(C)O5)n3)cc21 [Compound 769, N4-(2,2-Dimethyl-3-oxo-4H-benz[1,4]oxazin-6-yl)-5-fluoro-N2-(1-methylindazol-6-yl)-2,4-pyrimidinediamine Benzenesulfonic Acid Salt]
IC50 [1, 7]: < 10 µM | IC50 [1, 8]: < 10 µM | IC50 [2, 9]: > 10 µM

COCCn1ncc2cc(Nc3ncc(F)c(Nc4ccc(Cl)c(Cl)c4)n3)ccc21 [Compound 771, N4-(3,4-Dichlorophenyl)-5-fluoro-N2-[1-(2-methoxyethyl)indazol-5-yl]-2,4-pyrimidinediamine]
IC50 [1, 7]: < 10 µM | IC50 [1, 8]: < 10 µM | IC50 [2, 9]: > 10 µM

COCCn1ncc2cc(Nc3ncc(F)c(Nc4ccc(OC)c(Cl)c4)n3)ccc21 [Compound 772, N4-(3-Chloro-4-methoxyphenyl)-5-fluoro-N2-[1-(2-methoxyethyl)indazol-5-yl]-2,4-pyrimidinediamine]
IC50 [1, 7]: < 10 µM | IC50 [1, 8]: < 10 µM | IC50 [2, 9]: > 10 µM

COCCn1ncc2cc(Nc3ncc(F)c(Nc4ccc5c(c4)NC(=O)C(C)(C)O5)n3)ccc21 [Compound 773, N4-(2,2-Dimethyl-3-oxo-4H-benz[1,4]oxazin-6-yl)-5-fluoro-N2-[1-(2-methoxyethyl)indazol-5-yl]-2,4-pyrimidinediamine]
IC50 [1, 7]: < 10 µM | IC50 [1, 8]: < 10 µM | IC50 [2, 9]: > 10 µM

COCCn1ncc2cc(Nc3ncc(F)c(Nc4ccc(F)c(OC)c4)n3)ccc21 [Compound 774, 5-Fluoro-N4-(4-fluoro-3-methoxyphenyl)-N2-[1-(2-methoxyethyl)indazol-5-yl]-2,4-pyrimidinediamine]
IC50 [1, 7]: < 10 µM | IC50 [1, 8]: < 10 µM | IC50 [2, 9]: > 10 µM

COCCn1ncc2ccc(Nc3ncc(F)c(Nc4ccc(Cl)c(Cl)c4)n3)cc21 [Compound 775, N4-(3,4-Dichlorophenyl)-5-fluoro-N2-[1-(2-methoxyethyl)indazol-6-yl]-2,4-pyrimidinediamine]
IC50 [1, 7]: < 10 µM | IC50 [1, 8]: < 10 µM | IC50 [2, 9]: > 10 µM

COCCn1ncc2ccc(Nc3ncc(F)c(Nc4ccc(OC)c(Cl)c4)n3)cc21 [Compound 776, N4-(3-Chloro-4-methoxyphenyl)-5-fluoro-N2-[1-(2-methoxyethyl)indazol-6-yl]-2,4-pyrimidinediamine]
IC50 [1, 7]: < 10 µM | IC50 [1, 8]: < 10 µM | IC50 [2, 9]: > 10 µM

COCCn1ncc2ccc(Nc3ncc(F)c(Nc4ccc5c(c4)NC(=O)C(C)(C)O5)n3)cc21 [Compound 777, N4-(2,2-Dimethyl-3-oxo-4H-benz[1,4]oxazin-6-yl)-5-fluoro-N2-[1-(2-methoxyethyl)indazol-6-yl]-2,4-pyrimidinediamine]
IC50 [1, 7]: < 10 µM | IC50 [1, 8]: < 10 µM | IC50 [2, 9]: > 10 µM

COCCn1ncc2ccc(Nc3ncc(F)c(Nc4ccc(F)c(OC)c4)n3)cc21 [Compound 778, 5-Fluoro-N4-(4-fluoro-3-methoxyphenyl)-N2-[1-(2-methoxyethyl)indazol-6-yl]-2,4-pyrimidinediamine]
IC50 [1, 7]: < 10 µM | IC50 [2, 9]: > 10 µM

CC(=O)OCCCn1ncc2cc(Nc3ncc(F)c(Nc4ccc(Cl)c(Cl)c4)n3)ccc21 [Compound 787, N2-[1-(3-Acetyloxypropyl)indazol-5-yl]-N4-(3,4-dichlorophenyl)-5-fluoro-2,4-pyrimidinediamine]
IC50 [1, 7]: < 10 µM | IC50 [1, 8]: < 10 µM | IC50 [2, 9]: > 10 µM

COc1ccc(Nc2nc(Nc3ccc4c(cnn4CCCOC(C)=O)c3)ncc2F)cc1Cl [Compound 788, N2-[1-(3-Acetyloxypropyl)indazol-5-yl]-N4-(3-chloro-4-methoxyphenyl)-5-fluoro-2,4-pyrimidinediamine]
IC50 [1, 7]: < 10 µM | IC50 [1, 8]: < 10 µM | IC50 [2, 9]: > 10 µM

COc1cc(Nc2nc(Nc3ccc4c(cnn4CCCOC(C)=O)c3)ncc2F)ccc1F [Compound 789, N2-[1-(3-Acetyloxypropyl)indazol-5-yl]-5-fluoro-N4-(4-fluoro-3-methoxyphenyl)-2,4-pyrimidinediamine]
IC50 [1, 7]: < 10 µM | IC50 [1, 8]: < 10 µM | IC50 [2, 9]: > 10 µM

CC(=O)OCCCn1ncc2ccc(Nc3ncc(F)c(Nc4ccc(Cl)c(Cl)c4)n3)cc21 [Compound 790, N2-[1-(3-Acetyloxypropyl)indazol-6-yl]-N4-(3,4-dichlorophenyl)-5-fluoro-2,4-pyrimidinediamine]
IC50 [1, 7]: < 10 µM | IC50 [1, 8]: < 10 µM | IC50 [2, 9]: > 10 µM

CC1(C)Oc2ccc(Nc3nc(Nc4ccc5cnn(CCCO)c5c4)ncc3F)cc2NC1=O [Compound 791, N4-(2,2-Dimethyl-3-oxo-4H-benz[1,4]oxazin-6-yl)-5-fluoro-N2-[1-(3-hydroxypropyl)indazol-6-yl]-2,4-pyrimidinediamine]
IC50 [1, 7]: < 10 µM | IC50 [1, 8]: < 10 µM | IC50 [2, 9]: > 10 µM
